Results on 5 substances are retold here after patent US11274125B2, “Amyloid-beta-binding peptides and the use thereof for the treatment and diagnosis of Alzheimer's disease” (FORSCHUNGSZENTRUM JUELICH GMBH, priority 2013, dated 2022).

“Also recorded” adds a separate entry of the source. Where no end group is shown, it is not given here. [ ]: non-standard residue; d: D form.

Assay [1] has as its system TBA 2.1 mice. Nature of the assay: Rotarod test. It counts as in vivo, mouse. Particulars: 0.1 mg/day i.p. for 4 weeks (micropump), before vs after treatment. The text has this: FIG. 2: The so-called “rotarod” test is used to measure how long an animal is able to balance on a rotating rod before falling off. This allows the animal's neuromotor performance to be measured. The longer the animal is able to balance, the less strongly the motor neurons are affected by the phenotype of neurodegeneration. The difference between before and after treatment is plotted in seconds. […] As expected, the degeneration has thus progressed. […] Thus, the treatment slowed, or even stopped, the neurodegeneration in both instances.

Assay [2] concerns TgSwDI mouse model. Put plainly: Object recognition test (ORT). Particulars: TgSwDI mice. It counts as in vivo. The method, then: FIG. 1: Here, the result of the so-called “object recognition test” (ORT) is shown. Animals treated with D3D3 (amidated) (details in Table 2) and animals treated with placebo were placed individually and separately from each other in a box in which two objects were located. After the animals had time to explore both objects, the animals were removed from the box again and not placed back in there until 24 hours later. Before that, however, one object was replaced with a new object different therefrom. Animals having memory now preferably explore the new object. Animals having no memory of having stayed in the box 24 hours earlier spend the same amount of time exploring the old object and the new object. The time that the animal spends with the old object (white bars) and the new object (black bars) is measured in seconds. It is clearly apparent that the animals treated with the placebo spend the same amount of time with the new and the old objects. […] Thus, only the animals treated with D3D3 show a functioning memory in the test.
FIG. 5: Here, the result of the so-called “object recognition test” (ORT) is shown. Animals treated with RD2D3 (amidated) (details in Table 2) and animals treated with placebo were placed individually and separately from each other in a box in which two objects were located. After the animals had time to explore both objects, the animals were removed from the box again and not placed back in there until 24 hours later. Before that, however, one object was replaced with a new object different therefrom. Animals having memory now preferably explore the new object. Animals having no memory of having stayed in the box 24 hours earlier spend the same amount of time exploring the old object and the new object. The time that the animal spends with the old object (black bars) and the new object (white bars) is measured in seconds. It is clearly apparent that the animals treated with the placebo spent the same amount of time with the new and the old objects.

For assay [3], the system named is TBA 2.1 mice. Put plainly: SHIRPA test. Particulars: 0.1 mg/day i.p. for 4 weeks (micropump), before vs after treatment, FIG. 3, listed as D3D3 (amidated). It counts as in vivo, mouse. The method, then:
FIG. 3: The SHIRPA test is a test where a number of characteristics, including reflexes, are tested. Each characteristic is assessed separately from the others, and points are awarded in each case. The higher the number of points, the more progressed the phenotype, which is to say the neurological damage, is. The SHIRPA test was measured prior to (black bars) and after (white bards) the treatment (treatment details are provided in Table 2). […] D3D3 thus acts more efficiently than D3.

Assay [4] addresses T1, amyloid beta fibrils (Aß1-42) (Homo sapiens, UniProt P05067).
T1 construct: 1 mg lyophilized Aß1-42 and N-terminal biotinylated Aß1-42; biotin (only on part of the peptide molecules)
Put plainly: SPR binding kinetics, amyloid beta fibrils. Particulars: heterogeneous binding model, FIG. 8. The method, then: (§1) 1 mg lyophilized Aß1-42 and N-terminal biotinylated Aß1-42 were each dissolved in 1 ml 100% hexafluoroisopropanol (HFIP) and dissolved overnight at room temperature. For the oligomer and fibril preparation, non-biotinylated Aß was used with N-terminal biotinylated Aß at a ratio of 1:10 and the HFIP was evaporated (Concentrator 5301 from Eppendorf). The resultant Aß film, at a final concentration of 80 μM, was placed in sodium phosphate buffer (10 mM, pH 7.4) and incubated (RT, 600 rpm). The incubation time was 3 h for the oligomer preparation, and 24 h for the fibril preparation. 100% N-terminal biotinylated Aß1-42 without incubation was used for the preparation of monomers.
The density gradient centrifugation was carried out subsequent to the Aß preparation to purify the respective Aß species according to the size of the same. An iodixanol gradient in 10 mM sodium phosphate buffer, pH 7.4 with rising concentrations from 50% to 5% v/v iodixanol was used for this purpose. 100 μl of the Aß sample was applied and separated by way of ultracentrifugation (3 h, 4° C., 259000 g). […]
(§2) Binding kinetics were likewise measured by way of SPR spectroscopy using a T200 device from Biacore (GE Healthcare). […] The binding curves were evaluated by way of kinetic fit models (heterogeneous binding model) using the Biacore T200 evaluation software (version 2.0). […]
A general note: Surface plasmon resonance follows binding to a sensor surface in real time, without labels.

In assay [5] the target is T2, amyloid beta oligomers (Aß1-42) (Homo sapiens, UniProt P05067).
T2 construct: 1 mg lyophilized Aß1-42 and N-terminal biotinylated Aß1-42; biotin (only on part of the peptide molecules)
T2 sequence (P05067 672-713): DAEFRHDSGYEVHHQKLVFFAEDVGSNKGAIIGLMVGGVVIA
Put plainly: SPR binding kinetics, amyloid beta oligomer. The method, then:
as §1
The density gradient centrifugation was carried out subsequent to the Aß preparation to purify the respective Aß species according to the size of the same. An iodixanol gradient in 10 mM sodium phosphate buffer, pH 7.4 with rising concentrations from 50% to 5% v/v iodixanol was used for this purpose. 100 μl of the Aß sample was applied and separated by way of ultracentrifugation (3 h, 4° C., 259000 g). Subsequently, the gradient was fractionated into 14 fractions, 140 μl each. Monomeric Aß are present in the first two top fractions, Aß oligomers in fractions 4 to 6, and Aß fibrils in fractions […].
Immobilization for Surface Plasmon Resonance (SPR) Spectroscopy A T200 from Biacore (GE Healthcare) was used for SPR spectroscopy. The Aß species purified by way of density gradient centrifugation were directly immobilized on a sensor chip (Series S Sensor Chips SA) according to the manufacturer's instructions by way of biotin-streptavidin coupling. 1×PBS was used as the running buffer. Loading took place at 25° C. and a flow rate of 5 μl/min. […]
as §2

For assay [6], the system named is TgSwDI mouse model. Nature of the assay: Morris water maze. Particulars: TgSwDI mice, 7 mg/4 weeks i.p. (micropump), day 5, FIG. 4; listed as RD2D3 (amidated). It counts as in vivo. The method, then: FIG. 4: The so-called “Morris water maze” is used to measure the spatial memory of animals. The time is measured in seconds that the animal requires to locate a platform hidden closely beneath the water surface in a water tank. This is measured in several experiments per day on several consecutive days. […] The search time is plotted in seconds on five consecutive days. The learning of animals treated with RD2D3 (amidated) was significant.

T1 sequence (P05067 672-713): as above

With “D3D3 amidated: dimer D3D3 (SEQ ID NO: 6), amidated at position 24 at the free C-terminus ([dR][dP][dR][dT][dR][dL][dH][dT][dH][dR][dN][dR][dR][dP][dR][dT][dR][dL][dH][dT][dH][dR][dN][dR]-NH2; N-terminus assumed; SMILES CC(C)C[C@@H](NC(=O)[C@@H](CCCNC(=N)N)NC(=O)[C@H](NC(=O)[C@@H](CCCNC(=N)N)NC(=O)[C@H]1CCCN1C(=O)[C@H](N)CCCNC(=N)N)[C@H](C)O)C(=O)N[C@H](Cc1c[nH]cn1)C(=O)N[C@@H](C(=O)N[C@H](Cc1c[nH]cn1)C(=O)N[C@H](CCCNC(=N)N)C(=O)N[C@H](CC(N)=O)C(=O)N[C@H](CCCNC(=N)N)C(=O)N[C@H](CCCNC(=N)N)C(=O)N1CCC[C@@H]1C(=O)N[C@H](CCCNC(=N)N)C(=O)N[C@@H](C(=O)N[C@H](CCCNC(=N)N)C(=O)N[C@H](CC(C)C)C(=O)N[C@H](Cc1c[nH]cn1)C(=O)N[C@@H](C(=O)N[C@H](Cc1c[nH]cn1)C(=O)N[C@H](CCCNC(=N)N)C(=O)N[C@H](CC(N)=O)C(=O)N[C@H](CCCNC(=N)N)C(N)=O)[C@H](C)O)[C@H](C)O)[C@H](C)O)”, the Rotarod result with TBA 2.1 mice [1] (FIG. 2, listed as D3D3) is “able to stop the progression of the phenotype”; in the assay on TBA 2.1 mice [1] (FIG. 2, listed as D3D3 (amidated)) it was “exhibited no worsening of the neuromotor symptoms”. Also, the Object recognition result with TgSwDI mouse model [2] (1 mg/4 weeks i.p. (micropump), FIG. 1) was “significant”; in the assay with TgSwDI mouse model [2] (1 mg/4 weeks i.p. (micropump), FIG. 1, listed as D3D3) it was “considerably improves cognition”; in the assay on TgSwDI mouse model [2] (1 mg/4 weeks i.p. (micropump), FIG. 1, listed as D3D3 (amidated)) it was “spend much more time with the new object”. Besides, in the assay with TBA 2.1 mice [3], the SHIRPA result is “showed no significant worsening of the SHIRPA value; also recorded: acts more efficiently than the simple peptide D3 (amidated)”.

Take RKRTRLHTHRNR [cD3(P2K)]: the “Binding strength (KD, kinetics) to amyloid beta fibrils” value in assay [4] was “sub-pM binding range”.

Regarding “rprtrlhthrnr ([dR][dP][dR][dT][dR][dL][dH][dT][dH][dR][dN][dR]) [linear D3, known D-enantiomeric peptide D3, linear, unmodified C-terminal carboxyl group, reference compound]”, in assay [5] (heterogeneous binding model, FIG. 7), the “Binding strength (KD, kinetics) to amyloid beta oligomer” value is on record as “binds only a low-affinity site, but not a high-affinity site”.

Turning to “RD2D3 amidated: dimer RD2D3 (SEQ ID NO: 4), amidated at position 24 at the free C-terminus ([dP][dT][dL][dH][dT][dH][dN][dR][dR][dR][dR][dR][dR][dP][dR][dT][dR][dL][dH][dT][dH][dR][dN][dR]-NH2; N-terminus assumed; SMILES CC(C)C[C@@H](NC(=O)[C@@H](CCCNC(=N)N)NC(=O)[C@H](NC(=O)[C@@H](CCCNC(=N)N)NC(=O)[C@H]1CCCN1C(=O)[C@@H](CCCNC(=N)N)NC(=O)[C@@H](CCCNC(=N)N)NC(=O)[C@@H](CCCNC(=N)N)NC(=O)[C@@H](CCCNC(=N)N)NC(=O)[C@@H](CCCNC(=N)N)NC(=O)[C@@H](CCCNC(=N)N)NC(=O)[C@@H](CC(N)=O)NC(=O)[C@@H](Cc1c[nH]cn1)NC(=O)[C@H](NC(=O)[C@@H](Cc1c[nH]cn1)NC(=O)[C@@H](CC(C)C)NC(=O)[C@H](NC(=O)[C@H]1CCCN1)[C@H](C)O)[C@H](C)O)[C@H](C)O)C(=O)N[C@H](Cc1c[nH]cn1)C(=O)N[C@@H](C(=O)N[C@H](Cc1c[nH]cn1)C(=O)N[C@H](CCCNC(=N)N)C(=O)N[C@H](CC(N)=O)C(=O)N[C@H](CCCNC(=N)N)C(N)=O)[C@H](C)O)”, the Water maze result in the assay on TgSwDI mouse model [6] is recorded as “able to improve the cognition of SweDI mice”. In addition, the Object recognition entry is recorded as “significant” in the assay with TgSwDI mouse model [2] (7 mg/4 weeks i.p. (micropump), FIG. 5) and “spend much more time with the new object; also recorded: able to improve the cognition of SweDI mice” in the assay with TgSwDI mouse model [2] (7 mg/4 weeks i.p. (micropump), FIG. 5, listed as RD2D3 (amidated)).

With “cD3z: cD3 zero, cyclized D3 without any further amino acid attachments (cyclo([dR][dP][dR][dT][dR][dL][dH][dT][dH][dR][dN][dR]); SMILES CC(C)C[C@H]1NC(=O)[C@@H](CCCNC(=N)N)NC(=O)[C@@H]([C@H](C)O)NC(=O)[C@@H](CCCNC(=N)N)NC(=O)[C@H]2CCCN2C(=O)[C@@H](CCCNC(=N)N)NC(=O)[C@@H](CCCNC(=N)N)NC(=O)[C@@H](CC(N)=O)NC(=O)[C@@H](CCCNC(=N)N)NC(=O)[C@@H](Cc2c[nH]cn2)NC(=O)[C@@H]([C@H](C)O)NC(=O)[C@@H](Cc2c[nH]cn2)NC1=O)”, the “Rmax, contribution of KD2 (high-affinity site) to RU total loading” value in assay [5] (oligomers, FIG. 7, high-affinity site) is listed as 21%. In addition, in assay [5] (oligomers, FIG. 7, low-affinity site (white bar)), the “Rmax, contribution of the low-affinity site to RU total loading” value worked out at 79%.
